Assay [1] concerns the target T1, human N-type Ca channel (Homo sapiens, UniProt Q00975). Description: Calcium influx assay (FDSS), KCl depolarization, Fluo8 dye. In kind it is cell-based. Also noted: host or cells: HEK 293. As to conditions: HEK 293 cells expressing human N-type Ca channel; 100 mM KCl; read-out: N Type IC50 Data FDSS. Put shortly: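 HEK293 cells stably expressing the human N-type Ca channel were loaded with Fluo8 and washed in choline-based buffer (pH 7.2, 2 mM CaCl2, 2 mM KCl). Cells were preincubated with serially diluted compound for 15 min in the dark. Ca influx was then recorded by fluorescence after depolarization with 100 mM KCl.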

In assay [2] the target is T1, human N-type Ca channel. Description: Electrophysiological response, QPatch (depolarization -80 mV to +20 mV).
Description: The recombinant cell line described above was used in the measurement of electrophysiological properties with QPatch (Sophion). Cells were maintained in culture as mentioned above. Prior to the experiment, the flasks were moved to 30 °C and incubated for 48-72 hrs. On the day of assaying, cells were detached and harvested. The cell pellet was re-suspended in SMF4HEK (HyClone)/25mM HEPS at 2-5 million/ mL and placed on the QStirrer of the QPatch for 30-60 min prior to the start of the assay. […] Microtiter-Plate/Reference Buffer contained 140 mM TEA-Cl, 10mM BaCl2, 0.8 mM MgCl2, 10 mM HEPES pH ∼7.4 adjusted with TEA-OH/HCl, and ∼300mOsm. Cells were transferred to a QPatch 48 plate and gigaseal was formed. The plate was perfused with intracellular and extracellular buffer. […] In brief, cells were depolarized from resting potential of -80 mV to +20 mV and current was recorded. Data was plotted as percent inhibition vs concentration of the compound and IC50 values were generated using Graphpad Prism non-linear regression analysis.
[3] abbreviates: read-out: N Type IC50 Data Qpatch Pulse=15, Pulse=15, concentration range 0.01-1 µM.
Where [4] appears, read: Pulse=1, concentration range 0.01-0.3 µM.
[5] abbreviates: Pulse=15, concentration range 0.01-0.3 µM.
[6] abbreviates: N Type IC50 Data Qpatch Pulse=1, Pulse=1, concentration range 0.01-0.3 µM.
[7] abbreviates: N Type IC50 Data Qpatch Pulse=15, Pulse=15, concentration range 0.3-10 µM.
The mark [8] stands for this setting: read-out: Qpatch Pulse=1 (percent inhibition).
The mark [9] stands for this setting: N Type IC50 Data Qpatch Pulse=1, Pulse=1, concentration range 0.3-10 µM.
[10] abbreviates: read-out: Qpatch Pulse=15 (percent inhibition).
Setting [11] is: N Type IC50 Data Qpatch Pulse=1, Pulse=1, concentration range 0.01-1 µM.
The mark [12] stands for this setting: Pulse=15, concentration range 0.01-1 µM.
The mark [13] stands for this setting: Pulse=1, concentration range 0.01-1 µM.

The structures appear in SMILES notation. Read-outs that look alike come from different tables or passages of the source.

T1 sequence (Q00975 whole entry): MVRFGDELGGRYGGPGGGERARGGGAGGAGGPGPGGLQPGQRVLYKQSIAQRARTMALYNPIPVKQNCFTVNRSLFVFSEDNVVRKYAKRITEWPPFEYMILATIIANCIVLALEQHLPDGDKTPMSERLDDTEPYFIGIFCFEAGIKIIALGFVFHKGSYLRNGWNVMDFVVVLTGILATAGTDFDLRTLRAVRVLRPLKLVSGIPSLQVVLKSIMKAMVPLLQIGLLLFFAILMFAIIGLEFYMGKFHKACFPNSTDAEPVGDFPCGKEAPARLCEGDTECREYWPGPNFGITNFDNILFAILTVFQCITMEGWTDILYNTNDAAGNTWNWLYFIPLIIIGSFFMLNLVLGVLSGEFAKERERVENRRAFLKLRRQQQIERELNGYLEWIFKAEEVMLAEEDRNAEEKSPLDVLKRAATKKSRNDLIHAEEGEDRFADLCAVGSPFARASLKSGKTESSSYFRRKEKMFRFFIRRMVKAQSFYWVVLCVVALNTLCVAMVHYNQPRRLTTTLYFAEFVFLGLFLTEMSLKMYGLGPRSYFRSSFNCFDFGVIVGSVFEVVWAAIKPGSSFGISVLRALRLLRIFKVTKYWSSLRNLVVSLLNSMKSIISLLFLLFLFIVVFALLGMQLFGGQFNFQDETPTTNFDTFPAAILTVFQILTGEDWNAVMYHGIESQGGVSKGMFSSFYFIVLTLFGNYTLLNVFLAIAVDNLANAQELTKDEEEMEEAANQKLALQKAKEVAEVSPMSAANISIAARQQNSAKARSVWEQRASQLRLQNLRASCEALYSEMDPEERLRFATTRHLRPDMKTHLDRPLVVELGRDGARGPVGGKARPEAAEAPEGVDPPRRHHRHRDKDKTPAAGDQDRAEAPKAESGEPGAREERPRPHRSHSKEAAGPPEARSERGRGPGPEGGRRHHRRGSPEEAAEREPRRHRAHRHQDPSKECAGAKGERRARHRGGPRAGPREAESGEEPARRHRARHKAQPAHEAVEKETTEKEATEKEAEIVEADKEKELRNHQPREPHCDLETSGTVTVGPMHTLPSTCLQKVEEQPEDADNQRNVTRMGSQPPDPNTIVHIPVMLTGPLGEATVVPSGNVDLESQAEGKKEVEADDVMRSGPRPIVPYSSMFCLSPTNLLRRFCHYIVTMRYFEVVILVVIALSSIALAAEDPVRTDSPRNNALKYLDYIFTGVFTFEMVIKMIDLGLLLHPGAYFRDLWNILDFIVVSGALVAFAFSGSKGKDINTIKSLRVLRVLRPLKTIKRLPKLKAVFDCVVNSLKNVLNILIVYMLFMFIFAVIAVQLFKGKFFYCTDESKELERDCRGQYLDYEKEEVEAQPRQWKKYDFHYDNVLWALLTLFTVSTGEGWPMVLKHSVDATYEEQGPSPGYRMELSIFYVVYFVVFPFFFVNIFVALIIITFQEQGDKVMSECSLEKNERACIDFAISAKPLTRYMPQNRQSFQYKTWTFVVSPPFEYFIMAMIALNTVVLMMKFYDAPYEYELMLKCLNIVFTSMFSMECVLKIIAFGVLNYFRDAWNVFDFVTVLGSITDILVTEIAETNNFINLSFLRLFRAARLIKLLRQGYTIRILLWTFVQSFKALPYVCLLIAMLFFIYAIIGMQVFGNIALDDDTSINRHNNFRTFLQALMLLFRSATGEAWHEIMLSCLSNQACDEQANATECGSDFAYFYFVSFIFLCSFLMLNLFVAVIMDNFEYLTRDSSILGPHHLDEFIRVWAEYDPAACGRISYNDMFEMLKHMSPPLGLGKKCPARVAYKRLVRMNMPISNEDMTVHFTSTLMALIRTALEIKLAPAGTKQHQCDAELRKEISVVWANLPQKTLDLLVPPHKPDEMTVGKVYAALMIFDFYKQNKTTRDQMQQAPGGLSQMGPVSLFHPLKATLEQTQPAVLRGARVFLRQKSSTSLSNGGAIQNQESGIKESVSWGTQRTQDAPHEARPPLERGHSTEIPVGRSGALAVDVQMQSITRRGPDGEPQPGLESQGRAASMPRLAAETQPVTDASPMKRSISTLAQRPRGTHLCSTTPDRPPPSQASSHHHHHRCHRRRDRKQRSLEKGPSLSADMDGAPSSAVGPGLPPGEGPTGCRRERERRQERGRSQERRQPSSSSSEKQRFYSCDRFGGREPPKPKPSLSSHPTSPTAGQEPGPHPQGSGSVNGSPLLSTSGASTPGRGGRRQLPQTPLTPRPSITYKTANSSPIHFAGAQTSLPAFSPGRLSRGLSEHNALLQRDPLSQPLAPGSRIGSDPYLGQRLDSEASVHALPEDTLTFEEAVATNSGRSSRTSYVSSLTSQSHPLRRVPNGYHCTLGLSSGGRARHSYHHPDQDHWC
T1 sequence (P54284 whole entry partner): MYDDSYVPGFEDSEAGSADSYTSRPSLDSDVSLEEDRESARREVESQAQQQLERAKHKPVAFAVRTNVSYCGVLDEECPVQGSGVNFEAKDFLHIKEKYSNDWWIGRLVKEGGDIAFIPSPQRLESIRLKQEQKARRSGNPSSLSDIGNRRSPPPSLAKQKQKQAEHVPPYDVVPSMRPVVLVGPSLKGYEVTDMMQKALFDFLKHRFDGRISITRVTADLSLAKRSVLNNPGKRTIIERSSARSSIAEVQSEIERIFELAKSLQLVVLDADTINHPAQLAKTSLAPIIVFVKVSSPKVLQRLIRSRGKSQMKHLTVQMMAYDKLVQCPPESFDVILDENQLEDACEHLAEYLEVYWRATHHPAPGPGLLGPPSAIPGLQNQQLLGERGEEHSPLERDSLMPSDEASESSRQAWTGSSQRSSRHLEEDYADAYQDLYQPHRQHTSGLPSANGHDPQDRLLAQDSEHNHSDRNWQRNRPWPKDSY
T1 sequence (P54289 25-956 partner limits assumed): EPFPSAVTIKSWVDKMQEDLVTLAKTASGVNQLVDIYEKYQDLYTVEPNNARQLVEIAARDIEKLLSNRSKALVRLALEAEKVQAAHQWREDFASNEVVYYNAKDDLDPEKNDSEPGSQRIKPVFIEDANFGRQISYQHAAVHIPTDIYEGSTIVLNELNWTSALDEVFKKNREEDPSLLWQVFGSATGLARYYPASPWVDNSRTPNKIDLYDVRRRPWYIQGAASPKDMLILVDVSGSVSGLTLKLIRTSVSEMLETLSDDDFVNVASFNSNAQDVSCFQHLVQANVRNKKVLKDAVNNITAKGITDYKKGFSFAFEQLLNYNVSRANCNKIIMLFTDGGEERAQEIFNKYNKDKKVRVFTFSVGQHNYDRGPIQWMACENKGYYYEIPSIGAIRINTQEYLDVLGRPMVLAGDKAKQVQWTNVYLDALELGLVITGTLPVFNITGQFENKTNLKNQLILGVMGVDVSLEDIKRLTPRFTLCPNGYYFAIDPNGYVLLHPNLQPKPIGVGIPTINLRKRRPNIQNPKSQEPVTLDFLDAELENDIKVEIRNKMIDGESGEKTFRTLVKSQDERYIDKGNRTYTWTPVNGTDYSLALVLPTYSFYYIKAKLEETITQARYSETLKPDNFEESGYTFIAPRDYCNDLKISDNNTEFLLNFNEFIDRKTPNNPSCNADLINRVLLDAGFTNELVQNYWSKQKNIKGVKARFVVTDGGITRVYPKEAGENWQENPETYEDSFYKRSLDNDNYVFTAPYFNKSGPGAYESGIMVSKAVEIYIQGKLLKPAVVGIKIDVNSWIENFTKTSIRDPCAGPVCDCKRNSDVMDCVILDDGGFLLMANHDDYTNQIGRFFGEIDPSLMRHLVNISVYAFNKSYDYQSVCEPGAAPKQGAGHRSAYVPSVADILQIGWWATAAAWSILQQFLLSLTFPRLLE
T1 sequence (P54289 957-1103 partner limits assumed): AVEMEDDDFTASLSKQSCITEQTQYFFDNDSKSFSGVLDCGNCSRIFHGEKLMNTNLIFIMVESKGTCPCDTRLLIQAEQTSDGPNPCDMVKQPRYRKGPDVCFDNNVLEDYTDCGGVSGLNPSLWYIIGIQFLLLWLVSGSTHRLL

For the molecule `CC1(C)CC(c2cn(-c3ccc(C#N)cc3)c(CC3CC3)n2)CC(C)(C)O1` [Compound 58, 4-(2-(cyclopropylmethyl)-4-(2,2,6,6-tetramethyltetrahydro-2H-pyran-4-yl)-1H-imidazol-1-yl)benzonitrile], the IC50 is 4810 nM at human N-type Ca channel [1]; over 1000 nM on human N-type Ca channel [2] (read-out: N Type IC50 Data Qpatch Pulse=1, Pulse=1, concentration range 0.01-1 µM); over 1000 nM on human N-type Ca channel [2] (setting [3]).
`CC1(C)CC(c2cn(-c3ccc(C(F)(F)F)nc3)c(CC3CC3)n2)CC(C)(C)O1` [Compound 59, 5-(2-(cyclopropylmethyl)-4-(2,2,6,6-tetramethyltetrahydro-2H-pyran-4-yl)-1H-imidazol-1-yl)-2-(trifluoromethyl)pyridine]: the half-maximal inhibitory concentration (IC50) at human N-type Ca channel [1] was determined as 4400 nM. At human N-type Ca channel [2] (setting [4]), the “N Type IC50 Data Qpatch Pulse=1” value is given as “poor fit(0.01-0.3 µM)”. The “N Type IC50 Data Qpatch Pulse=15” value on human N-type Ca channel [2] (setting [5]) is recorded as “poor fit(0.01-0.3 µM)”.
For `CCOc1nccnc1-c1nc(C2CC(C)(C)OC(C)(C)C2)cn1-c1ccc(Cl)cc1` [Compound 60, 2-(1-(4-chlorophenyl)-4-(2,2,6,6-tetramethyltetrahydro-2H-pyran-4-yl)-1H-imidazol-2-yl)-3-ethoxypyrazine], the IC50 at human N-type Ca channel [1] was found to be 321 nM; on human N-type Ca channel [2] (setting [6]), 247 nM. Besides, on human N-type Ca channel [2] (setting [5]), the “N Type IC50 Data Qpatch Pulse=15” value is “poor fit(0.01-0.3 µM)”.
On to `COc1ccccc1-c1nc(C2CC(C)(C)OC(C)(C)C2)cn1-c1ccc(OC(F)F)cc1` [Compound 61, 1-(4-(difluoromethoxy)phenyl) -2-(2-methoxyphenyl)-4-(2,2,6,6-tetramethyltetrahydro-2H-pyran-4-yl)-1H-imidazole], for which the 50% inhibitory concentration (IC50) was determined as 37 nM at human N-type Ca channel [1]; 751 nM on human N-type Ca channel [2] (setting [6]); 1050 nM at human N-type Ca channel [2] (N Type IC50 Data Qpatch Pulse=15, Pulse=15, concentration range 0.01-0.3 µM).
Turning to `COc1ccccc1-c1nc(C2CC(C)(C)OC(C)(C)C2)cn1-c1ccc(Br)c(F)c1` [Compound 62, 1-(4-bromo-3-fluorophenyl)-2-(2-methoxyphenyl)-4-(2,2,6,6-tetramethyltetrahydro-2H-pyran-4-yl)-1H-imidazole], the half-maximal inhibitory concentration (IC50) on human N-type Ca channel [1] was determined as 177 nM; on human N-type Ca channel [2] (setting [7]) it was 413 nM. In addition, at human N-type Ca channel [2] (setting [8]), the inhibition at 10 µM worked out at 81%.
Take `COc1ccccc1-c1nc(C2CC(C)(C)OC(C)(C)C2)cn1-c1ccc(F)c(Br)c1` [Compound 63, 1-(3-bromo-4-fluorophenyl)-2-(2-methoxyphenyl)-4-(2,2,6,6-tetramethyltetrahydro-2H-pyran-4-yl)-1H-imidazole]: the IC50 at human N-type Ca channel [1] amounted to 213 nM; at human N-type Ca channel [2] (setting [7]), 3500 nM. The inhibition at 10 µM at human N-type Ca channel [2] (setting [8]) was found to be 53%.
On to `COc1ncccc1-c1nc(C2CC(C)(C)OC(C)(C)C2)cn1-c1ccc(F)c(Br)c1` [Compound 64, 3-(1-(3-bromo-4-fluorophenyl)-4-(2,2,6,6-tetramethyltetrahydro-2H-pyran-4-yl)-1H-imidazol-2-yl)-2-methoxypyridine], for which the 50% inhibitory concentration (IC50) is 360 nM at human N-type Ca channel [1], 4060 nM at human N-type Ca channel [2] (setting [9]) and 1720 nM against human N-type Ca channel [2] (setting [7]).
On to `COc1ncccc1-c1nc(C2CC(C)(C)OC(C)(C)C2)cn1-c1ccc(Br)c(F)c1` [Compound 65, 3-(1-(4-bromo-3-fluorophenyl)-4-(2,2,6,6-tetramethyltetrahydro-2H-pyran-4-yl)-1H-imidazol-2-yl)-2-methoxypyridine], for which the IC50 at human N-type Ca channel [1] worked out at 225 nM; at human N-type Ca channel [2] (setting [7]) it was 8600 nM. Further, the inhibition at 10 µM at human N-type Ca channel [2] (setting [8]) worked out at 58%.
On to `COc1cnccc1-c1nc(C2CC(C)(C)OC(C)(C)C2)cn1-c1ccc(Cl)cc1` [Compound 66, 4-(1-(4-chlorophenyl)-4-(2,2,6,6-tetramethyltetrahydro-2H-pyran-4-yl)-1H-imidazol-2-yl)-3-methoxypyridine], for which the IC50 on human N-type Ca channel [1] was 49 nM; at human N-type Ca channel [2] (setting [7]), 1300 nM.
The corresponding values for `COc1ccncc1-c1nc(C2CC(C)(C)OC(C)(C)C2)cn1-c1ccc(Cl)cc1` [Compound 68, 3-(1-(4-chlorophenyl)-4-(2,2,6,6-tetramethyltetrahydro-2H-pyran-4-yl)-1H-imidazol-2-yl)-4-methoxypyridine] are 109 nM and 4600 nM.
Turning to `COc1ccncc1-c1nc(C2CC(C)(C)OC(C)(C)C2)cn1-c1ccc(F)cc1` [Compound 69, 3-(1-(4-fluorophenyl)-4-(2,2,6,6-tetramethyltetrahydro-2H-pyran-4-yl)-1H-imidazol-2-yl)-4-methoxypyridine], the IC50 at human N-type Ca channel [1] is 1430 nM. Also, the inhibition at 10 µM is 53% on human N-type Ca channel [2] (setting [8]) and 29% on human N-type Ca channel [2] (setting [10]).
As for `COc1cccnc1-c1nc(C2CC(C)(C)OC(C)(C)C2)cn1-c1ccc(F)cc1` [Compound 70, 2-(1-(4-fluorophenyl)-4-(2,2,6,6-tetramethyltetrahydro-2H-pyran-4-yl)-1H-imidazol-2-yl)-3-methoxypyridine], the half-inhibitory concentration (IC50) on human N-type Ca channel [1] was 871 nM. The inhibition at 10 µM on human N-type Ca channel [2] (setting [8]) amounted to 41%.
As for `COc1ncccc1-c1nc(C2CC(C)(C)OC(C)(C)C2)cn1-c1cc(F)ccc1F` [Compound 71, 3-(1-(2,5-difluorophenyl)-4-(2,2,6,6-tetramethyltetrahydro-2H-pyran-4-yl)-1H-imidazol-2-yl)-2-methoxypyridine], the IC50 at human N-type Ca channel [1] amounted to 422 nM; on human N-type Ca channel [2] (setting [11]), 5830 nM. In addition, at human N-type Ca channel [2] (setting [12]), the “N Type IC50 Data Qpatch Pulse=15” value is on record as “poor fit(0.01- 1 µM)”.
With `COc1ncccc1-c1nc(C2CC(C)(C)OC(C)(C)C2)cn1-c1cc(F)cc(F)c1` [Compound 72, 3-(1-(3,5-difluorophenyl)-4-(2,2,6,6-tetramethyltetrahydro-2H-pyran-4-yl)-1H-imidazol-2-yl)-2-methoxypyridine], the IC50 at human N-type Ca channel [1] worked out at 2400 nM. Further, the “N Type IC50 Data Qpatch Pulse=1” value on human N-type Ca channel [2] (setting [13]) is recorded as “poor fit(0.01- 1 µM)”. The “N Type IC50 Data Qpatch Pulse=15” value at human N-type Ca channel [2] (setting [12]) was “poor fit(0.01- 1 µM)”.
As to `COc1ncccc1-c1nc(C2CC(C)(C)OC(C)(C)C2)cn1-c1cc(F)cc(C#N)c1` [Compound 73, 3-fluoro-5-(2-(2-methoxypyridin-3-yl)-4-(2,2,6,6-tetramethyltetrahydro-2H-pyran-4-yl)-1H-imidazol-1-yl)benzonitrile], the IC50 on human N-type Ca channel [1] was 8160 nM. Besides, the “N Type IC50 Data Qpatch Pulse=1” value on human N-type Ca channel [2] (setting [13]) is listed as “poor fit(0.01- 1 µM)”. Also, the “N Type IC50 Data Qpatch Pulse=15” value on human N-type Ca channel [2] (setting [12]) was “poor fit(0.01- 1 µM)”.
Take `CCOc1ccc(-n2cc(C3CC(C)(C)OC(C)(C)C3)nc2-c2cccnc2OC)cn1` [Compound 75, 3-(1-(6-ethoxypyridin-3-yl)-4-(2,2,6,6-tetramethyltetrahydro-2H-pyran-4-yl)-1H-imidazol-2-yl)-2-methoxypyridine]: the IC50 came to 2060 nM at human N-type Ca channel [1], 9800 nM at human N-type Ca channel [2] (setting [9]) and 4200 nM on human N-type Ca channel [2] (setting [7]).
`COc1ncccc1-c1nc(C2CC(C)(C)OC(C)(C)C2)cn1-c1ccc(C#N)cc1F` [Compound 76, 3-fluoro-4-(2-(2-methoxypyridin-3-yl)-4-(2,2,6,6-tetramethyltetrahydro-2H-pyran-4-yl)-1H-imidazol-1-yl)benzonitrile]: the half-inhibitory concentration (IC50) at human N-type Ca channel [1] is 151 nM; against human N-type Ca channel [2] (setting [11]), over 1000 nM; at human N-type Ca channel [2] (setting [3]), over 1000 nM.
Regarding `COc1cc(-n2cc(C3CC(C)(C)OC(C)(C)C3)nc2-c2cccnc2OC)ccc1C#N` [Compound 77, 2-methoxy-4-(2-(2-methoxypyridin-3-yl)-4-(2,2,6,6-tetramethyltetrahydro-2H-pyran-4-yl)-1H-imidazol-1-yl)benzonitrile], the IC50 is 10000 nM on human N-type Ca channel [1], over 1000 nM at human N-type Ca channel [2] (setting [11]) and over 1000 nM at human N-type Ca channel [2] (setting [3]).
For the molecule `COc1ncccc1-c1nc(C2CC(C)(C)OC(C)(C)C2)cn1-c1ccc(C#N)c(Cl)c1` [Compound 78, 2-chloro-4-(2-(2-methoxypyridin-3-yl)-4-(2,2,6,6-tetramethyltetrahydro-2H-pyran-4-yl)-1H-imidazol-1-yl)benzonitrile], the results for the IC50 at human N-type Ca channel [1] and at human N-type Ca channel [2] (setting [3]) were 234 nM and over 1000 nM, respectively.
For `COc1ncccc1-c1nc(C2CC(C)(C)OC(C)(C)C2)cn1-c1ccc(F)c(C#N)c1` [Compound 79, 2-fluoro-5-(2-(2-methoxypyridin-3-yl)-4-(2,2,6,6-tetramethyltetrahydro-2H-pyran-4-yl)-1H-imidazol-1-yl)benzonitrile], the IC50 on human N-type Ca channel [1] turned out to be 1330 nM; against human N-type Ca channel [2] (setting [7]) it was 3600 nM. Besides, the inhibition at 10 µM at human N-type Ca channel [2] (setting [8]) was 29%.
Take `COc1ncccc1-c1nc(C2CC(C)(C)OC(C)(C)C2)cn1-c1ccc(C#N)c(F)c1` [Compound 80, 2-fluoro-4-(2-(2-methoxypyridin-3-yl)-4-(2,2,6,6-tetramethyltetrahydro-2H-pyran-4-yl)-1H-imidazol-1-yl)benzonitrile]: the IC50 at human N-type Ca channel [1] stood at 333 nM. In addition, the inhibition at 10 µM at human N-type Ca channel [2] (setting [10]) worked out at 28%.
With `COc1ccccc1-c1nc(C2CC(C)(C)OC(C)(C)C2)cn1-c1ccc(C#N)c(F)c1` [Compound 81, 2-fluoro-4-(2-(2-methoxyphenyl)-4-(2,2,6,6-tetramethyltetrahydro-2H-pyran-4-yl)-1H-imidazol-1-yl) benzonitrile], the half-inhibitory concentration (IC50) at human N-type Ca channel [1] was 201 nM; against human N-type Ca channel [2] (setting [9]), 6700 nM; against human N-type Ca channel [2] (setting [7]), 2800 nM.
For the molecule `COc1ncccc1-c1nc(C2CC(C)(C)OC(C)(C)C2)cn1-c1cc(F)c(C#N)c(F)c1` [Compound 82, 2,6-difluoro-4-(2-(2-methoxypyridin-3-yl)-4-(2,2,6,6-tetramethyltetrahydro-2H-pyran-4-yl)-1H-imidazol-1-yl) benzonitrile], the 50% inhibitory concentration (IC50) on human N-type Ca channel [1] was determined as 3260 nM. The “N Type IC50 Data Qpatch Pulse=1” value at human N-type Ca channel [2] (setting [4]) is “poor fit(0.01-0.3 µM)”. On human N-type Ca channel [2] (setting [5]), the “N Type IC50 Data Qpatch Pulse=15” value was “poor fit(0.01-0.3 µM)”.

These data come from EP3033337B1, “SUBSTITUTED IMIDAZOLES AS N-TYPE CALCIUM CHANNEL BLOCKERS” (Janssen Pharmaceutica NV, priority 2013, dated 2015).
